According to publication PMC10834624, “Estrogen receptor α interaction of zearalenone and its phase I metabolite α-zearalenol in combination with soy isoflavones in hERα-HeLa-9903 cells” (Mycotoxin Research, 2023):
Like-named read-outs stand apart in the source and are kept apart here.

Key:
hERα-HeLa-9903 cells [1] = assay: Sulforhodamine B (SRB) assay, cell protein amount; type: cell-based, human; conditions: 10 µM 4-OH-TAM, 24 h
Description: The SRB assay was conducted immediately after the CTB assay. Following the removal of the remaining CTB solution the cells in each well were fixed with 10 µL of a 50% trichloroacetic acid solution in distilled water. The 96-well plates were placed for 1 h into the refrigerator at 4 °C. Upon this cold incubation, the plates were carefully rinsed twice with tap water and then left to dry in a dark surrounding. Once the plates had dried, 50 µL of the SRB solution was pipetted into each well. The dye was left to stain the proteins for 1 h, again in a dark setting at room temperature. Afterwards the dye was rinsed off twice with tap water and twice with a 1% acetic acid solution. […] Once the plates had dried, the SRB solution bound to the protein components of the cells was dissolved in 100 µL of an alkaline Tris base solution (0.30 g tris(hydroxymethyl-) aminomethane solved in 250 mL distilled water) by shaking for 5 min in the plate reader (Victor V3 1240 Multilabel Counter from Perkin Elmer (Waltham/MA, USA) or the Cytation 3 Cell Imaging Multi-Mode Reader from Biotek® (Winooski/VT Vermont, USA)). Subsequently, the absorbance was measured at 570 nm and as for the CTB; the final results were referred to the solvent control (0.1% DMSO) in percentage.

[2] = biological target: T1, ERα (hERα-HeLa-9903 cells) (Homo sapiens, UniProt P03372); assay: cell-based; type: cell-based; conditions: for Luciferase induction: 1 nM E2=100%; for induced ERα-dependent luciferase expression in concentrations above: abstract; for concentration at which an increase in luciferase activity was initiated: discussion
T1 construct: host or cells: hERα-HeLa-9903 (modified human cervical HeLa cell line)
T1 sequence (P03372 whole entry): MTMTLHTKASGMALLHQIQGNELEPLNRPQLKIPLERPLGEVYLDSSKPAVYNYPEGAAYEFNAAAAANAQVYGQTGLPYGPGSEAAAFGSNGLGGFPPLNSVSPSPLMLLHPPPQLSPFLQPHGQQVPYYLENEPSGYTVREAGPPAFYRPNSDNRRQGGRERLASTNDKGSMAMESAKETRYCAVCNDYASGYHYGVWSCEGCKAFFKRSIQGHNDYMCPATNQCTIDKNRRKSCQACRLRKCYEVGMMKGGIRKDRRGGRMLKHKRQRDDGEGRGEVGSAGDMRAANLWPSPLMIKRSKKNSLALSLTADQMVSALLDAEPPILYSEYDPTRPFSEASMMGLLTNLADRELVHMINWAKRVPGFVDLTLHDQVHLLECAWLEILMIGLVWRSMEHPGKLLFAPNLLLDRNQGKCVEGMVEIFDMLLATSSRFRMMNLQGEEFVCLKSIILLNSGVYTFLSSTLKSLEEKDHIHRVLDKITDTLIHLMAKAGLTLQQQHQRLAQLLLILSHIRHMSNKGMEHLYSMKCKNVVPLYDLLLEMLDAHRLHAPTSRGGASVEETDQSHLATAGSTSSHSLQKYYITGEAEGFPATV
Description: The assays were performed in 96-well plates following the instructions of the manufacturer (Promega [2007]). Per well, 10,000 hERα-HeLa-9903 cells in assay medium were seeded and grown for 3 h. […] The substances were previously dissolved in DMSO in […] higher concentrations than the tested concentration, followed by dilution in the assay medium. In case of single substance testing and for the solvent control, DMSO was added to reach 0.1% in the final incubation solutions. Concentrations ranged from 0.001 to 100 nM in case of ZEN and its metabolites and 0.001 to 100 µM in case of ISF, with 1:10 dilution steps in between. […] All experiments were performed in technical triplicates and at least five independent biological replicates.
Following the 24-h incubation, the supernatants were discarded and 100 µL of a ONE-Glo™ EX luciferase incubation solution (1:1 dilution of OGL reagent and EMEM (5% CD-FBS)) was added and shaken for 5 min. Subsequently, 90 µL of the supernatant of each well was transferred to a new, white 96-well plate. The luminescence of the white plate was directly measured with a gain of 140 using the Victor V3 1240 Multilabel Counter from Perkin Elmer (Waltham/MA, USA) or the Cytation 3 Cell Imaging Multi-Mode Reader from Biotek® (Winooski/VT, USA).

hERα-HeLa-9903 cells [3] = system: hERα-HeLa-9903 cells
[4] = system: firefly luciferase encoding gene (hERα-HeLa-9903 cells); assay: RT-qPCR of luciferase mRNA; type: cell-based, human; conditions: 10 nM, 24 h
Description: For the RT-qPCR, cells (hERα-HeLa-9903) were seeded in assay medium in 12-well plates at a density of 150,000 cells and allowed to grow for 24 h. Incubation solutions contained 0.1% DMSO and the test compounds and compound mixtures at various concentrations. After the same incubation time as the OGL-assay (24 h), cells were washed and subsequently the total RNA was extracted following the RNeasy Mini Kit protocol from Qiagen. The following reverse transcription was performed according to the QuantiTect-Reverse-Transcription manual (Qiagen [2009]) to transcribe 1 µg RNA to cDNA. Then, RT-qPCR was performed using primers for the firefly luciferase encoding gene with the following oligonucleotide sequences for reverse primer 5′-[…]-3′ and forward primer 5′-[…]-3′, as well as the endogenous control primers delta-aminolevulinate synthase (1HS_ALAS1_1_SG, QT00073122), actin beta (Hs_ACTB_1_SG, QT00095431) and glyceraldehyde-3-phosphate dehydrogenase (Hs_GAPDH_1_SG, QT00079247) with SYBR green as fluorescent probe. The amplification the following setting was applied: 95 °C for 2 min, followed by 40 repetition cycles of: 95 °C (15 s), 55 °C (15 s), 72 °C (60 s). […] Quantification was performed according to Livak and Schmittgen ([2001]) using the 2-ΔΔCt method resulting in the depiction of fold-changes in comparison to the solvent control.

[5] = system: Ishikawa cells, expressing ERα and ERβ; conditions: 0.001–0.01 nM with GEN, DAI or EQ 0.001–0.1 µM; ref Grgic et al. [2022]; cited from earlier work
[6] = single mycoestrogen 100 nM, 24 h

For `CC/C(=C(\c1ccc(O)cc1)c1ccc(OCCN(C)C)cc1)c1ccccc1` [4-OH-TAM, (Z)-4-hydroxytamoxifen], the “protein content (SRB)” value (hERα-HeLa-9903 cells [1]) was “tendency to decrease the protein content”.

In the case of `O=c1c(-c2ccc(O)cc2)coc2cc(O)ccc12` [DAI, daidzein], the “transcriptional activity compared to E2 after calculating the difference between 4-OH-TAM treated and untreated samples” value [2] is reported as “higher transcriptional activity” and the “metabolic activity (CTB) vs solvent control” value (hERα-HeLa-9903 cells [3]) is reported as “no significant difference was observed”.

In the case of `Oc1ccc([C@H]2COc3cc(O)ccc3C2)cc1` [EQ, S-equol], the EC50 ([2]; isoflavones, 24 h, read-out: EC50 (sigmoidal dose-response curve fit of luciferase induction)) is reported as 1600 ± 200 nM, the Luciferase induction ([2]; single isoflavone 10 μM, 24 h) is reported as 334% and the “metabolic activity (CTB) vs solvent control” value (hERα-HeLa-9903 cells [3]) is reported as “no significant difference was observed”.

For `O=c1c(-c2ccc(O)cc2)coc2cc(O)cc(O)c12` [GEN, genistein], the “metabolic activity (CTB) vs solvent control” value (hERα-HeLa-9903 cells [3]) was “no significant difference was observed”.

In the case of `C[C@H]1CCCC(=O)CCC/C=C/c2cc(O)cc(O)c2C(=O)O1` [ZEN, zearalenone], the EC50 [2] is reported as 24.4 ± 0.4 nM, the “induced ERα-dependent luciferase expression in concentrations above” value [2] is reported as “above 1 nM” and the “concentration at which an increase in luciferase activity was initiated” value [2] is reported as 0.1 nM. For the same molecule, the Luciferase induction [2, 6] was 86%, the “luciferase mRNA levels” value [4] was “induce luciferase mRNA levels significantly” and the “estrogenic response in combination compared to single substances” value [5] was “significantly enhanced the estrogenic response”.

With `C[C@H]1CCC[C@H](O)CCC/C=C/c2cc(O)cc(O)c2C(=O)O1` [α-ZEL, α-zearalenol] the “potency to induce luciferase compared to ZEN” value ([2]; 0.01 to 10 nM) was “higher potency”, the “induced ERα-dependent luciferase expression in concentrations above” value [2] was over 10 pM and the “concentration at which an increase in luciferase activity was initiated” value [2] was 0.01 nM. The EC50 ([2]; mycoestrogens, 24 h, read-out: EC50 (sigmoidal dose-response curve fit of luciferase induction)) was 0.057 ± 0.004 nM, the Luciferase induction [2, 6] was 95% and the “estrogenic response in combination compared to single substances” value [5] was “significantly enhanced the estrogenic response”.

For `C[C@H]1CCC[C@H](O)CCCCCc2cc(O)cc(O)c2C(=O)O1` [α-zearalanol], the “estrogenic response in combination compared to single substances” value [5] is given as “significantly enhanced the estrogenic response”.
